Test: Cyclic voltammetry, redox potentials
Assay type: physicochemical
Conditions: dichloromethane at 22° C. versus Fc
Excerpt: Without being bound by theory, it is believed that the observed photochemical reaction with long wavelength light is not the result of intramolecular energy transfer from the porphyrin to the pyrazoline because estimations indicate that it would be an extremely endothermic process. With respect to the possibility that a photoinduced electron transfer may be responsible, it is first noted that there is no precedence for this reaction with pyrazolines. If the porphyrin and pyrazoline are considered as separate molecules, however, the estimation of the feasibility of an electron transfer process may be conducted as follows. Generally, a photochemical electron transfer occurs only when it is exergonic or <5 kcal mol^−1 endergonic (Eberson, L. Electron Transfer Reactions in Organic Chemistry, Springer-Verlag: Berlin Germany, 1987). The free energy change for a photoinduced electron transfer can be determined from the oxidation potential of the electron donor (E°D), the reduction potential of the electron acceptor (E°A) and the excited state energy of the sensitizer (E0,0), using the relationship ΔGET=23.06 kcal mol^−1[(E°D−E°A)−E0,0]−C; where C is a term that accounts for solvation. In order to estimate the feasibility of electron transfer using this relationship, the redox properties of the molecules must be known. The starting materials MePPP (18), the pyrazoline (19), and the photoproduct cyclopropane (20) have reduction and oxidation potentials as shown in Table 2.
The radical anions and dianions are therefore stable on the time scale of these experiments, with no chemistry occurring on addition of electrons to these molecules. If any chemical reactions were occurring from the radical anion or dianion, the CV's would be irreversible. […] On reduction, two consecutive electrons are accepted by the porphyrin macrocycle in each of 18, 19 and 20. The oxidations are also reversible; the only notable feature of the oxidation potentials is that 19 and 20 are somewhat easier to oxidize than MePPP. […]

C=Cc1c(C)c2cc3nc(c4c5[nH]c(cc6nc(cc1[nH]2)C(C)=C6CC)c(C)c5C(=O)C4)C(CCC(=O)OC)C3C (stereo not drawn) [Compound 18, Methylpyropheophorbide]
Oxidation 1 (redox potential): 0.61 | Reduction 1 (redox potential): −1.47 | Reduction 2 (redox potential): −1.73

— patent US6894161B2, “Methods and compositions for photo-cross linking photoactive compounds to target tissue” (The University of British Columbia, priority 2001, dated 2005)
